# Experimental data taken from article PMC7613998, “Development of selective inhibitors of phosphatidylinositol 3-kinase C2α” (Nature Chemical Biology, 2022).
# Like-named read-outs stand apart in the source and are kept apart here.
# Assays:
# Assay in all cases: biochemical
# VPS34 complex II = molecular target: T1, VPS34 complex II (Homo sapiens, UniProt Q8NEB9); parameters: Lipid kinase activity assay on purified class I PI3K or VPS34 complex II, 10 uM ATP
# T1 construct: gene PIK3C3
# Experimental: Extended Data Fig. 2 Lipid kinase inhibitor profile of PITCOIN1-3. (a–c) Selectivity profiling of PITCOIN1-3 (1 µM) with purified lipid kinases in the presence of 10 µM ATP. […] Data are presented as mean ± SD from two independent experiments. (d, e) IC50 measurements of PITCOIN1-3 against purified recombinant class I PI3K p110α/p85α (d) or purified class III PI3K VPS34 complex II (e). 10 µM ATP and 20 µM PIP3 (for p110α/p85α) or 200 µM PI (for VPS34 complex II) were used as substrates. […] Data are presented as mean ± SD from two independent experiments. Source data
# MKNK1 (MNK1) = MKNK1 (MNK1) (Homo sapiens, UniProt Q9BUB5); parameters: SelectScreen Z'-LYTE purified kinase panel, per cent inhibition, mean of two points; settings: (μM)=Km app
# Chain of MKNK1 (MNK1) (Q9BUB5 whole entry): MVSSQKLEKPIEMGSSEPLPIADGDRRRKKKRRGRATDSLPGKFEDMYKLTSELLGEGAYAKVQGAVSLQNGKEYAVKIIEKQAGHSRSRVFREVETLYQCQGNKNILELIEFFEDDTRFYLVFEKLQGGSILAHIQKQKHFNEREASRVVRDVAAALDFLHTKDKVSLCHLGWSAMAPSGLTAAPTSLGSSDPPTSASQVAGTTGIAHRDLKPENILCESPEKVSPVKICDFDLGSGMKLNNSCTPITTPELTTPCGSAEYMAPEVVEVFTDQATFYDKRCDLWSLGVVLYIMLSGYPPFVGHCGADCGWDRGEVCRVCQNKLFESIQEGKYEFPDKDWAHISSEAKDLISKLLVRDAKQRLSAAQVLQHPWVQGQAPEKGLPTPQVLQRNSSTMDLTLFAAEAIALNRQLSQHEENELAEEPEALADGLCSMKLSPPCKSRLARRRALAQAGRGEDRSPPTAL
# PIM1 = PIM1 (Homo sapiens, UniProt P11309); parameters: SelectScreen Z'-LYTE purified kinase panel, per cent inhibition, mean of two points; settings: (μM)=Km app
# Chain of PIM1 (P11309 whole entry): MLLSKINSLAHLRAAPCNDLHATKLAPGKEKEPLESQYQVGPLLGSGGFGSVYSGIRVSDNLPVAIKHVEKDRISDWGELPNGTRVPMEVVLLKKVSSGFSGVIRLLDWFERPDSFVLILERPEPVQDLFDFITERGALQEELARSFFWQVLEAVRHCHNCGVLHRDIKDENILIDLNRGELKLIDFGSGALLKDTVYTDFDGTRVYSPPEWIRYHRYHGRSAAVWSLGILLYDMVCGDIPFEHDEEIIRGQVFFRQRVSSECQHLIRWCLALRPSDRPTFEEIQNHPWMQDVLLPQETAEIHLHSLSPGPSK
# ROCK2 = ROCK2 (Homo sapiens, UniProt O75116); parameters: SelectScreen Z'-LYTE purified kinase panel, per cent inhibition, mean of two points; settings: (μM)=Km app
# Chain of ROCK2 (O75116 whole entry): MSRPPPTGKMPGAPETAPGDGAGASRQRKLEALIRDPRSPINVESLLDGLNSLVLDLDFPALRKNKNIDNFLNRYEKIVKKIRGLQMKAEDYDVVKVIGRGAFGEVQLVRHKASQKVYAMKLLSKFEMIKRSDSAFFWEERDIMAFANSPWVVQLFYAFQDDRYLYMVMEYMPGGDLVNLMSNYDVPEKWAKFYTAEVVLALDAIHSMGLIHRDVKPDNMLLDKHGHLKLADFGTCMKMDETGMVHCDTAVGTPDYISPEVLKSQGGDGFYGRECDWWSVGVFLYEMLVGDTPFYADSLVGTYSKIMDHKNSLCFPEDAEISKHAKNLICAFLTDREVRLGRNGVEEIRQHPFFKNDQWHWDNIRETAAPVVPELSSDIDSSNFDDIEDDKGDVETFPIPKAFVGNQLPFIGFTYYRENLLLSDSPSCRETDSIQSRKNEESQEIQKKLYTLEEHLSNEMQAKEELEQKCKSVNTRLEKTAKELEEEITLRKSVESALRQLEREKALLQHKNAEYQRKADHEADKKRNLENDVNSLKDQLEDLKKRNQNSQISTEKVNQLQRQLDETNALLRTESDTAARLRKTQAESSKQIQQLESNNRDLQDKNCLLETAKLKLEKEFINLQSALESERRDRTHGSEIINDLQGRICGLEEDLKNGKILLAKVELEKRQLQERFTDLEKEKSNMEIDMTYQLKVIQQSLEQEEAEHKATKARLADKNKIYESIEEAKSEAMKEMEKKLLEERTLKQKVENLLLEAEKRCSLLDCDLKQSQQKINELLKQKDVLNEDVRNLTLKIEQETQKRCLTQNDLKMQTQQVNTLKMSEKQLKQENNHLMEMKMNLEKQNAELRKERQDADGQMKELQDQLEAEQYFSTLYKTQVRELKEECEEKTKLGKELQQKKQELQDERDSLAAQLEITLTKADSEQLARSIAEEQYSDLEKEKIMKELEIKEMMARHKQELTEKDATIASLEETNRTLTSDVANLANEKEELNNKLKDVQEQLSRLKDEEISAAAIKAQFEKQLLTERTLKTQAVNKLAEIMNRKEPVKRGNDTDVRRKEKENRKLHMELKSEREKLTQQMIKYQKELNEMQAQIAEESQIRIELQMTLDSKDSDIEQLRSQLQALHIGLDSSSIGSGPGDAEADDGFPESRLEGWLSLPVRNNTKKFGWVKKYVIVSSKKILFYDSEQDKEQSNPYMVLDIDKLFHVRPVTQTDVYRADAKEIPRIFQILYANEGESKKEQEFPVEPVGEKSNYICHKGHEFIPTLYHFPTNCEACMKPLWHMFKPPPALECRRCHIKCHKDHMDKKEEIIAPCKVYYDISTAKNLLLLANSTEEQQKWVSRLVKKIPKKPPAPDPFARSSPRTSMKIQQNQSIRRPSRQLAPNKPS
# GSK3B (GSK3 beta) = GSK3B (GSK3 beta) (Homo sapiens, UniProt P49841); parameters: SelectScreen Z'-LYTE purified kinase panel, per cent inhibition, mean of two points; settings: (μM)=Km app
# Chain of GSK3B (GSK3 beta) (P49841 whole entry): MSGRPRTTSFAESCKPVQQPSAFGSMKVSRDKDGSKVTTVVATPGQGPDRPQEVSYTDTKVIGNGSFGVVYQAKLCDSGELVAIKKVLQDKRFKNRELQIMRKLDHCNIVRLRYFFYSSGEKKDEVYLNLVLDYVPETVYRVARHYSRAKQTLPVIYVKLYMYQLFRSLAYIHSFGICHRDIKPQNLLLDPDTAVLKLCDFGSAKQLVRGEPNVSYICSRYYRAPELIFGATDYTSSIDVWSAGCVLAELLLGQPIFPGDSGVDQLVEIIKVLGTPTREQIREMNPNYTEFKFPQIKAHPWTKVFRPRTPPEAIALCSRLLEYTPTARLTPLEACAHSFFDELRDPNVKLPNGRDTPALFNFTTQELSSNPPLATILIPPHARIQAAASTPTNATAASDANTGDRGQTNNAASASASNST
# MARK3 = MARK3 (Homo sapiens, UniProt P27448); parameters: SelectScreen Z'-LYTE purified kinase panel, per cent inhibition, mean of two points; settings: (μM)=Km app
# Chain of MARK3 (P27448 whole entry): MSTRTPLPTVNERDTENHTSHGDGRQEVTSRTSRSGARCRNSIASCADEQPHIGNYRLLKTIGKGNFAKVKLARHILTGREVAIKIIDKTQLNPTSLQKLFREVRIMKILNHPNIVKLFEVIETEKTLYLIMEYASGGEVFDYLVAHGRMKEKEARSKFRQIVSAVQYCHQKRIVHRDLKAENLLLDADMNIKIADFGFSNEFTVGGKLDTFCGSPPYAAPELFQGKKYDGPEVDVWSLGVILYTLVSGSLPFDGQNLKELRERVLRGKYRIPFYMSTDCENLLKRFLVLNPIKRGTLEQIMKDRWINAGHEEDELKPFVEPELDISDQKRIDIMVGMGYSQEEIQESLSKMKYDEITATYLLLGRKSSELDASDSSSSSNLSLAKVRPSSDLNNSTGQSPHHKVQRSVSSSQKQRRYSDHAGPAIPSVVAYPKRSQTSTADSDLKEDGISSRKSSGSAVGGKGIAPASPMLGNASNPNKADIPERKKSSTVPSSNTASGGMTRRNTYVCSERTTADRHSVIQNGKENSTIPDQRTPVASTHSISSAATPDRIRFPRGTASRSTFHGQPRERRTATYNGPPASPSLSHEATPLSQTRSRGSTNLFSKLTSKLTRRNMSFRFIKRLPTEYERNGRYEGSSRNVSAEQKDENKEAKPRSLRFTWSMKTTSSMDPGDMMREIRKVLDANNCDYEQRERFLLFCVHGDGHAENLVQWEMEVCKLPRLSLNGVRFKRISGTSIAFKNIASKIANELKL
# ABL1 E255K = ABL1 E255K (Homo sapiens, UniProt P00519, E255K); parameters: SelectScreen Z'-LYTE purified kinase panel, per cent inhibition, mean of two points; settings: (μM)=Km app
# AURKB (Aurora B) = AURKB (Aurora B) (Homo sapiens, UniProt Q96GD4); parameters: SelectScreen Z'-LYTE purified kinase panel, per cent inhibition, mean of two points; settings: (μM)=Km app
# Chain of AURKB (Aurora B) (Q96GD4 whole entry): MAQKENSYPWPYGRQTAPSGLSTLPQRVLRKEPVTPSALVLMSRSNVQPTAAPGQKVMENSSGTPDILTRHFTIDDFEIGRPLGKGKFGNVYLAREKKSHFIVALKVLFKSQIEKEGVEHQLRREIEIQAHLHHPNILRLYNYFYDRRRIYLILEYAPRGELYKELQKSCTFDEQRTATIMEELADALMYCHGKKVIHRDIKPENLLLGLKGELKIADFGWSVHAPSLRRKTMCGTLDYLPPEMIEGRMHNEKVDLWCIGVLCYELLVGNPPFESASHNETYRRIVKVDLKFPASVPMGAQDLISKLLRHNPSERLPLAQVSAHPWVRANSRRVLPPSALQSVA
# KDR (VEGFR2) = KDR (VEGFR2) (Homo sapiens, UniProt P35968); parameters: SelectScreen Z'-LYTE purified kinase panel, per cent inhibition, mean of two points; settings: (μM)=Km app
# DNA-PK = molecular target: T2, DNA-PK (Homo sapiens, UniProt P78527); parameters: SelectScreen Z'-LYTE purified kinase panel, per cent inhibition, mean of two points; settings: (μM)=Km app
# T2 construct: gene PRKDC
# EGFR (ErbB1) = EGFR (ErbB1) (Homo sapiens, UniProt P00533); parameters: SelectScreen Z'-LYTE purified kinase panel, per cent inhibition, mean of two points; settings: (μM)=Km app
# Chain of EGFR (ErbB1) (P00533 whole entry): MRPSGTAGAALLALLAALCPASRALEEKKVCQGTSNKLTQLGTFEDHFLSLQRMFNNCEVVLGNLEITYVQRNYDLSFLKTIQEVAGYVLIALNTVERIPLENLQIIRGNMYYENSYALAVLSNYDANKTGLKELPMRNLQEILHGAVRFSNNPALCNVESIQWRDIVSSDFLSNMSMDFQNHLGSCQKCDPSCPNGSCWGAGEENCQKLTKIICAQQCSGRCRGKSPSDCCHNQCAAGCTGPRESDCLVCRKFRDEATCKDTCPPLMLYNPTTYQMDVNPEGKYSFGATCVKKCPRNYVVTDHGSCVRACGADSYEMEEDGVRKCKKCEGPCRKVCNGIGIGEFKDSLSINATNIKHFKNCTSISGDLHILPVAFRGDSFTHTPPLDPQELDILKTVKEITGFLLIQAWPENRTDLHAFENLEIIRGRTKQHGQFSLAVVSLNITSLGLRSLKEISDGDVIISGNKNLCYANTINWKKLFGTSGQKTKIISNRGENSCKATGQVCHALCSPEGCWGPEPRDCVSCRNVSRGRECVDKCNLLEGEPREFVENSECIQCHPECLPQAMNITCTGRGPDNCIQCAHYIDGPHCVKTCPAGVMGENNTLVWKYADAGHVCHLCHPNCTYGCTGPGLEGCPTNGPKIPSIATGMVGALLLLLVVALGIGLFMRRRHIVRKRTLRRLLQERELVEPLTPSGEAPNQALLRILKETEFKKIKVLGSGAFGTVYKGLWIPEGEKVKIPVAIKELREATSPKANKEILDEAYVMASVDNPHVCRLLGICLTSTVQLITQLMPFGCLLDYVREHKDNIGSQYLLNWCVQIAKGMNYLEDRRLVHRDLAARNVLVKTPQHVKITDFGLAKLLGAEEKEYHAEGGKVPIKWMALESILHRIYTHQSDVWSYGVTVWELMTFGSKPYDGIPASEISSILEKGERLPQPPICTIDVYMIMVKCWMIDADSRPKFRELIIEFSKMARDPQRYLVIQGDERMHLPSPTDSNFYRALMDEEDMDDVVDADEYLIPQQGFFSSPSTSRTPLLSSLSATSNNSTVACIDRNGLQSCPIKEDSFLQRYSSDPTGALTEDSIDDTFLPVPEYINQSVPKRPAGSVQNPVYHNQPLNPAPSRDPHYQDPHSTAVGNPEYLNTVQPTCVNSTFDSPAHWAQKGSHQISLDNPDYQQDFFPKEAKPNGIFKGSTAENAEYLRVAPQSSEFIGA
# INSR = INSR (Homo sapiens, UniProt P06213); parameters: SelectScreen Z'-LYTE purified kinase panel, per cent inhibition, mean of two points; settings: (μM)=Km app
# PIP5K1B = PIP5K1B (Homo sapiens, UniProt O14986); parameters: SelectScreen Adapta purified lipid kinase panel, 1 uM compound, 10 uM ATP, per cent inhibition; settings: ATP=10; Technology=Adapta; 10 uM ATP
# Experimental: (§1) As PI3KC2α is related to other PI3Ks and to PI3K-like protein kinases such as mTOR, the selectivity of PITCOINs was determined in a panel of biochemical assays. […] Finally, the high specificity of PITCOINs for PI3KC2α was verified by Kinobead profiling experiments. In this approach, the ability of PITCOINs to compete the affinity capture of cellular kinases on immobilized nonselective kinase inhibitors (Kinobeads) is analyzed by mass spectrometry (MS)[31]. […] Four nonkinase weak off-targets were globally found for the three inhibitors with only FECH[32] common to the three PITCOINs (Supplementary Dataset).  Extended Data Fig. 2 Lipid kinase inhibitor profile of PITCOIN1-3. (a–c) Selectivity profiling of PITCOIN1-3 (1 µM) with purified lipid kinases in the presence of 10 µM ATP. […] Data are presented as mean ± SD from two independent experiments. (d, e) IC50 measurements of PITCOIN1-3 against purified recombinant class I PI3K p110α/p85α (d) or purified class III PI3K VPS34 complex II (e). 10 µM ATP and 20 µM PIP3 (for p110α/p85α) or 200 µM PI (for VPS34 complex II) were used as substrates. […] Data are presented as mean ± SD from two independent experiments. Source data
# FRAP1 (mTOR) = FRAP1 (mTOR) (Homo sapiens, UniProt P42345); parameters: SelectScreen Z'-LYTE mTOR kinase assay, 1 uM compound, 10 uM ATP, per cent inhibition; settings: ATP=10; Technology=ZLYTE; 10 uM ATP
# Experimental: as §1
SMILES,inhibition at 1 µM (MKNK1 (MNK1)),inhibition at 3 µM (MKNK1 (MNK1)),inhibition at 10 µM (MKNK1 (MNK1)),inhibition at 1 µM (PIM1),inhibition at 3 µM (PIM1),inhibition at 10 µM (PIM1),inhibition at 1 µM (ROCK2),inhibition at 3 µM (ROCK2),inhibition at 10 µM (ROCK2),inhibition at 1 µM (GSK3B (GSK3 beta)),inhibition at 3 µM (GSK3B (GSK3 beta)),inhibition at 10 µM (GSK3B (GSK3 beta)),inhibition at 1 µM (MARK3),inhibition at 3 µM (MARK3),inhibition at 10 µM (MARK3),inhibition at 1 µM (ABL1 E255K),inhibition at 3 µM (ABL1 E255K),inhibition at 10 µM (ABL1 E255K),inhibition at 1 µM (AURKB (Aurora B)),inhibition at 1 µM (FRAP1 (mTOR)),further results
"O=C(CSc1nc2nccnc2c(=O)n1CCc1ccccc1)Nc1nccs1 [compound 1, PITCOIN1]",-10.5%,-9.2%,-14.3%,8.8%,5.6%,-0.465%,2.33%,1.58%,5.34%,2.87%,1.81%,2.24%,2.69%,11.3%,0.672%,-2.31%,-1.35%,-2.49%,-15.7%,8%,IC50 (VPS34 complex II; read-out: PITCOIN1 (IC50)): > 10 µM; inhibition at 3 µM (AURKB (Aurora B)): -5.68%; inhibition at 10 µM (AURKB (Aurora B)): -10.8%; inhibition at 1 µM (KDR (VEGFR2)): 8.19%; inhibition at 3 µM (KDR (VEGFR2)): 4.57%; inhibition at 10 µM (KDR (VEGFR2)): -0.425%; inhibition at 1 µM (DNA-PK): 13.4%; inhibition at 3 µM (DNA-PK): 14.1%; inhibition at 10 µM (DNA-PK): 12.5%; inhibition at 1 µM (EGFR (ErbB1)): 2.09%; inhibition at 3 µM (EGFR (ErbB1)): 1.39%; inhibition at 10 µM (EGFR (ErbB1)): -0.671%; inhibition at 1 µM (INSR): 3.42%; inhibition at 3 µM (INSR): 3.95%; inhibition at 10 µM (INSR): 0.721%; inhibition at 1 µM (PIP5K1B): 5%
"O=C(CSc1nc2nccnc2c(=O)n1CCc1ccccc1)Nc1nc(-c2cccc(O)c2)cs1 [compound 2, PITCOIN2]",–,–,–,–,–,–,–,–,–,–,–,–,–,–,–,–,–,–,–,5%,IC50 (VPS34 complex II; read-out: PITCOIN2 (IC50)): > 10 µM; inhibition at 1 µM (PIP5K1B): -1%
"CS(=O)(=O)Nc1cccc(-c2csc(NC(=O)CSc3nc4nccnc4c(=O)n3CCc3ccccc3)n2)c1 [compound 3, PITCOIN3]",-3.26%,-7.92%,0.613%,-8.14%,9.01%,5.45%,7.17%,-3.73%,2.1%,-0.953%,-1.98%,-4.59%,1.74%,4.94%,6.84%,-1.49%,2.48%,-1.01%,-3.65%,4%,IC50 (VPS34 complex II; read-out: PITCOIN3 (IC50)): > 10 µM; inhibition at 3 µM (AURKB (Aurora B)): 2.11%; inhibition at 10 µM (AURKB (Aurora B)): 6.27%; inhibition at 1 µM (KDR (VEGFR2)): 0.654%; inhibition at 3 µM (KDR (VEGFR2)): 10.7%; inhibition at 10 µM (KDR (VEGFR2)): 9.78%; inhibition at 1 µM (DNA-PK): 11%; inhibition at 3 µM (DNA-PK): 23.7%; inhibition at 10 µM (DNA-PK): 23.3%; inhibition at 1 µM (EGFR (ErbB1)): -2.95%; inhibition at 3 µM (EGFR (ErbB1)): 6.63%; inhibition at 10 µM (EGFR (ErbB1)): 0.555%; inhibition at 1 µM (INSR): 3.69%; inhibition at 3 µM (INSR): 4.01%; inhibition at 10 µM (INSR): 4.66%
